Laboratory results reported in paper PMC6061170, “Synthesis and biological investigations of 3β-aminotropane arylamide derivatives with atypical antipsychotic profile” (Medicinal Chemistry Research, 2018).
Structures can show the parent of a compound that is named as a salt. Where two headings read alike, the source gives them in different places.

Legend:
dopamine D2 receptors = dopamine D2 receptors (Rattus norvegicus, UniProt P61169); experiment: Radioligand binding assay, D2 receptors
[1] = target: T1, serotonin 5-HT1A receptors (Rattus norvegicus, UniProt P19327); experiment: Radioligand binding assay, 5-HT1A receptors
T1 construct: from tissue; host or cells: rat brain tissues
T1 sequence (P19327 1-422): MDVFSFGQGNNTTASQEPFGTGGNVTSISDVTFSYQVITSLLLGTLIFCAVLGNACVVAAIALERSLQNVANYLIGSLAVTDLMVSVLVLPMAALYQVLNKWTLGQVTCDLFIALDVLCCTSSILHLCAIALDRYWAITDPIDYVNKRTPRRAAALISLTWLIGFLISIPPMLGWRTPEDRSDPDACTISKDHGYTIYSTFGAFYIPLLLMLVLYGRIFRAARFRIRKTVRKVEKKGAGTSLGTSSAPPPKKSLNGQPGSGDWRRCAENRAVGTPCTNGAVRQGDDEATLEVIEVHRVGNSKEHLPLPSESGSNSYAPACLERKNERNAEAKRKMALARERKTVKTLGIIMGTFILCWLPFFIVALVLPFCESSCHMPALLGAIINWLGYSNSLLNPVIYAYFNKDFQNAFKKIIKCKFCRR
Procedure: All compounds were tested for their affinities for 5-HT1A, 5-HT2A, and D2 receptors according to previously described procedures (Stefanowicz et al. [2016]).
Competition binding studies were performed according to a previously described procedure in rat brain tissues (Stefanowicz et al. [2016]).

[2] = target: T2, serotonin 5-HT2A receptors (Rattus norvegicus, UniProt P14842); experiment: Radioligand binding assay, 5-HT2A receptors
T2 construct: from tissue; host or cells: rat brain tissues
T2 sequence (P14842 whole entry): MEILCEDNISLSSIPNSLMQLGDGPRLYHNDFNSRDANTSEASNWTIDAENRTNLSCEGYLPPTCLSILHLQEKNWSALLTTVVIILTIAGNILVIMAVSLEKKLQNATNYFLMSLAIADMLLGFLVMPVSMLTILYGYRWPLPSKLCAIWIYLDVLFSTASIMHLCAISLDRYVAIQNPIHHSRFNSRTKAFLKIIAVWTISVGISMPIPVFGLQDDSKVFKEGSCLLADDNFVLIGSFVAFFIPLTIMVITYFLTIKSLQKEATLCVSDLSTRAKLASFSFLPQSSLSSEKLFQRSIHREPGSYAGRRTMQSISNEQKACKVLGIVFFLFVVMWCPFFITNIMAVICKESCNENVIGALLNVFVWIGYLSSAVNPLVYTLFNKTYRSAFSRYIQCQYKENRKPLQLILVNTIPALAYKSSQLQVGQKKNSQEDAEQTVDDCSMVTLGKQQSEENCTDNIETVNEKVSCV

Albino Swiss mice [3] = experiment: Forced swim test; conditions: last 4 min of session
Albino Swiss mice [4] = experiment: Four-plate test
[5] = rat brain tissues, read-out: D2 IC50 [nM] ± SEM
[6] = rat brain tissues, read-out: D2 Ki [nM] ± SEM
[7] = rat brain tissues, read-out: 5-HT1A IC50 [nM] ± SEM
[8] = rat brain tissues, read-out: 5-HT1A Ki [nM] ± SEM
[9] = rat brain tissues, read-out: 5-HT2A IC50 [nM] ± SEM
[10] = rat brain tissues, read-out: 5-HT2A Ki [nM] ± SEM
[11] = 5 mg/kg i.p. 30 min before test
[12] = 1.25 mg/kg i.p. 30 min before test
[13] = 2.5 mg/kg i.p. 30 min before test

dopamine D2 receptors, sequence (P61169 1-415 isoform P61169-2): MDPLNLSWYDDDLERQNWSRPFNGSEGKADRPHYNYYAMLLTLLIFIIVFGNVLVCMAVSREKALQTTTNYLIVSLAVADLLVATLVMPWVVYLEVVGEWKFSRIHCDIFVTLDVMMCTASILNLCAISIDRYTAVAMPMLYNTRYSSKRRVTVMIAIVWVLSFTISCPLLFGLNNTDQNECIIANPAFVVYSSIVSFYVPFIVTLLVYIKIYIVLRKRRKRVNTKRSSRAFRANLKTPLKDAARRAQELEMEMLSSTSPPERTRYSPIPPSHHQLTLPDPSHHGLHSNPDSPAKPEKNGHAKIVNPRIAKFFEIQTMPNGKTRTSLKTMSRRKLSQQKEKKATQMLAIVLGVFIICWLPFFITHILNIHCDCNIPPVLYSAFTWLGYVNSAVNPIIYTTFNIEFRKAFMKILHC

SMILES | IC50 (dopamine D2 receptors; [5]) [nM] | Ki (dopamine D2 receptors; [6]) [nM] | IC50 [1, 7] [nM] | Ki [1, 8] [nM] | IC50 [2, 9] [nM] | Ki [2, 10] [nM] | melting point [°C] | Ki (dopamine D2 receptors) [nM] | Ki [1] [nM] | further results
O=C(NC1CC2CCC(C1)N2Cc1ccccn1)c1ccc2ccccc2n1 (stereo not drawn) [Compound 12l] | 3080 ± 350 | 616 ± 70.3 | 665 ± 14.3 | 221 ± 4.7 | > 10000 | > 10000 | 150.2 to 151 | – | – | –
O=C(NC1CC2CCC(C1)N2Cc1ccncc1)c1cnc2ccccc2c1 (stereo not drawn) [Compound 12u] | – | – | – | – | – | – | 69.5 to 72 | > 10000 | > 10000 | IC50 (dopamine D2 receptors): > 10000 nM; IC50 [1]: > 10000 nM; IC50 [2]: 4528 ± 22.5 nM; Ki [2]: 1229 ± 6 nM
COc1cc(C(=O)NC2CC3CCC(C2)N3Cc2cccnc2)nc2ccccc12 (stereo not drawn) [Compound 12s] | > 10000 | > 10000 | 3750 ± 264 | 1250 ± 88 | > 10000 | > 10000 | 162.6 to 165.5 | – | – | –
O=C(NC1CC2CCC(C1)N2Cc1cccnc1)c1ccc2ccccc2n1 (stereo not drawn) [Compound 12p] | 5440 ± 1030 | 1090 ± 205 | 3250 ± 122 | 1080 ± 40.5 | > 10000 | > 10000 | 143 to 143.4 | – | – | –
COc1cc(C(=O)NC2CC3CCC(C2)N3Cc2ccncc2)nc2ccccc12 (stereo not drawn) [Compound 12w] | > 10000 | > 10000 | 942 ± 52.9 | 314 ± 18 | > 10000 | > 10000 | 52 to 55 | – | – | –
Cc1ccccc1CN1C2CCC1CC(NC(=O)c1ccc3ncccc3c1)C2 (stereo not drawn) [Compound 12c] | 1270 ± 63 | 254 ± 12.8 | 1350 ± 159 | 450 ± 53 | > 10000 | > 10000 | 211.4 to 212.7 | – | – | –
O=C(NC1CC2CCC(C1)N2Cc1cccnc1)c1cnc2ccccc2c1 (stereo not drawn) [Compound 12q] | – | – | – | – | – | – | 138.3 to 146.2 | > 10000 | > 10000 | IC50 (dopamine D2 receptors): > 10000 nM; IC50 [1]: > 10000 nM; IC50 [2]: > 10000 nM; Ki [2]: > 10000 nM
O=C(NC1CC2CCC(C1)N2Cc1ccccn1)c1cnc2ccccc2c1 (stereo not drawn) [Compound 12m] | > 10000 | > 10000 | 850 ± 135 | 283 ± 45 | > 10000 | > 10000 | 169.4 to 170.5 | – | – | –
Cc1ccccc1CN1C2CCC1CC(NC(=O)c1ccc3ccccc3n1)C2 (stereo not drawn) [Compound 12a] | 263 ± 20.5 | – | 140 ± 6.7 | – | > 10000 | > 10000 | 120.8 to 121.4 | 52 ± 4 | 46.6 ± 2.2 | –
O=C(NC1CC2CCC(C1)N2Cc1ccccn1)c1ccc2ncccc2c1 (stereo not drawn) [Compound 12n] | – | – | – | – | – | – | 193.7 to 194.5 | > 10000 | > 10000 | IC50 (dopamine D2 receptors): > 10000 nM; IC50 [1]: > 10000 nM; IC50 [2]: > 10000 nM; Ki [2]: > 10000 nM
CN(C)CCCN1c2ccccc2CCc2ccccc21 [Imipramine, reference compound] | – | – | – | – | – | – | – | – | – | Immobility time (s) Mean ± SEM (Albino Swiss mice [3]; [11]): 170.42 ± 10.9 s; Immobility time (s) Mean ± SEM (Albino Swiss mice [3]; 20 mg/kg i.p. 30 min before test): 77.81 ± 12.2; p < 0.001 F(3,36) = 16.7570; p < 0.0001 s
CN1C(=O)CN=C(c2ccccc2)c2cc(Cl)ccc21 [Diazepam, reference compound] | – | – | – | – | – | – | – | – | – | Number of punished crossings /1 min Mean ± SEM (Albino Swiss mice [4]; diazepam 1.25 mg/kg, 60 min before test): 5.8 ± 0.3; p < 0.01 crossings/1 min; Number of punished crossings /1 min Mean ± SEM (Albino Swiss mice [4]; diazepam 2.5 mg/kg, 60 min before test): 6.4 ± 0.5; p < 0.01 crossings/1 min; Number of punished crossings /1 min Mean ± SEM (Albino Swiss mice [4]; diazepam 5 mg/kg, 60 min before test): 6.6 ± 0.4; p < 0.05 F(3,36) = 6.455; p < 0.01 crossings/1 min
Cc1ccc(CN2C3CCC2CC(NC(=O)c2cnc4ccccc4c2)C3)cc1 (stereo not drawn) [Compound 12j] | 227 ± 37.6 | – | 493 ± 44.5 | 164 ± 15 | > 10000 | > 10000 | 219.5 to 220.8 | 45.3 ± 7.5 | – | –
Nc1cccc(CN2C3CCC2CC(NC(=O)c2ccc4ccccc4c2)C3)c1 (stereo not drawn) [Compound 19b] | 1560 ± 19.9 | 312 ± 3.9 | 862 ± 49.5 | 286 ± 16.4 | 766 ± 48.4 | 208 ± 13.2 | 165.4 to 166.6 | – | – | –
COc1cc(C(=O)NC2CC3CCC(C2)N3Cc2cccc(C)c2)nc2ccccc12 (stereo not drawn) [Compound 12h] | 2510 ± 271 | 503 ± 54.5 | – | – | > 10000 | > 10000 | 116.1 to 118.3 | – | 21 ± 2 | IC50 [1]: 62.8 ± 6.2 nM; Number of punished crossings /1 min Mean ± SEM (Albino Swiss mice [4]; [12]): 5.3 ± 0.3; p < 0.001 crossings/1 min; Number of punished crossings /1 min Mean ± SEM (Albino Swiss mice [4]; [13]): 5.5 ± 0.5; p < 0.001 crossings/1 min; Number of punished crossings /1 min Mean ± SEM (Albino Swiss mice [4]; [11]): 2.9 ± 0.3 F(3,36) = 17.202; p < 0.00001 crossings/1 min; increase of punished crossings vs. respective control group (Albino Swiss mice [4]; 1.25 and 2.5 mg/kg i.p.): ~60%; Immobility time (s) Mean ± SEM (Albino Swiss mice [3]; 0.625 mg/kg i.p. 30 min before test): 163.29 ± 10.7 s; Immobility time (s) Mean ± SEM (Albino Swiss mice [3]; [12]): 134.78 ± 12.9 s; Immobility time (s) Mean ± SEM (Albino Swiss mice [3]; [13]): 185.00 ± 15.0 F(3,30) = 3.5680; p < 0.05 s
Cc1cccc(CN2C3CCC2CC(NC(=O)c2cnc4ccccc4c2)C3)c1 (stereo not drawn) [Compound 12f] | 2730 ± 202 | 546 ± 40.2 | 255 ± 9.6 | – | 5290 ± 148 | 1440 ± 40.5 | 194 to 194.7 | – | 84.5 ± 3.4 | –
Cc1ccccc1CN1C2CCC1CC(NC(=O)c1cnc3ccccc3c1)C2 (stereo not drawn) [Compound 12b] | 1630 ± 23 | 326 ± 4.5 | 244 ± 14.9 | – | 3780 ± 348 | 1030 ± 94 | 179.2 to 180.2 | – | 81.5 ± 5 | –
Nc1ccc(CN2C3CCC2CC(NC(=O)c2ccc4ccccc4c2)C3)cc1 (stereo not drawn) [Compound 19c] | 682 ± 42.7 | 136 ± 8.5 | 4040 ± 469 | 1340 ± 156 | 4580 ± 199 | 1240 ± 54 | 201.6 to 208.8 | – | – | –
O=C(NC1CC2CCC(C1)N2Cc1ccncc1)c1ccc2ncccc2c1 (stereo not drawn) [Compound 12v] | – | – | – | – | – | – | 182 to 183.3 | > 10000 | > 10000 | IC50 (dopamine D2 receptors): > 10000 nM; IC50 [1]: > 10000 nM; IC50 [2]: > 10000 nM; Ki [2]: > 10000 nM
Cc1ccc(CN2C3CCC2CC(NC(=O)c2ccc4ccccc4n2)C3)cc1 (stereo not drawn) (as salt: oxalate) [Compound 12i, N-[8-(4-methylbenzyl)-8-azabicyclo[3.2.1]oct-3β-yl)]-quinoline-2-carboxamide oxalate] | – | – | – | – | – | – | 215 to 215.4 | – | – | –
O=C(NC1CC2CCC(C1)N2Cc1ccncc1)c1ccc2ccccc2n1 (stereo not drawn) [Compound 12t] | > 10000 | > 10000 | 2430 ± 31 | 809 ± 10.5 | > 10000 | > 10000 | 143 to 145.7 | – | – | –
Cc1ccc(CN2C3CCC2CC(NC(=O)c2ccc4ncccc4c2)C3)cc1 (stereo not drawn) [Compound 12k] | 172 ± 5 | – | 1530 ± 58 | 511 ± 19 | > 10000 | > 10000 | 211.9 to 213 | 34.2 ± 0.8 | – | –
COc1cc(C(=O)NC2CC3CCC(C2)N3Cc2ccccn2)nc2ccccc12 (stereo not drawn) [Compound 12o] | > 10000 | > 10000 | 453 ± 12.6 | 151 ± 4.1 | > 10000 | > 10000 | 132.5 to 133 | – | – | –
O=C(NC1CC2CCC(C1)N2Cc1cccnc1)c1ccc2ncccc2c1 (stereo not drawn) [Compound 12r] | – | – | – | – | – | – | 158.3 to 162.5 | > 10000 | > 10000 | IC50 (dopamine D2 receptors): > 10000 nM; IC50 [1]: > 10000 nM; IC50 [2]: > 10000 nM; Ki [2]: > 10000 nM
Cc1cccc(CN2C3CCC2CC(NC(=O)c2ccc4ncccc4c2)C3)c1 (stereo not drawn) [Compound 12g] | 1370 ± 81.8 | 275 ± 16.5 | 867 ± 29.7 | 289 ± 9.9 | > 10000 | > 10000 | 174.4 to 175.5 | – | – | –
COc1cc(C(=O)NC2CC3CCC(C2)N3Cc2ccccc2C)nc2ccccc12 (stereo not drawn) [Compound 12d] | > 10000 | > 10000 | 102 ± 4.9 | – | > 10000 | > 10000 | 54.5 to 55.9 | – | 34 ± 1.7 | Number of punished crossings /1 min Mean ± SEM (Albino Swiss mice [4]; [13]): 3.3 ± 0.3 crossings/1 min; Number of punished crossings /1 min Mean ± SEM (Albino Swiss mice [4]; [11]): 4.8 ± 0.3 crossings/1 min; Number of punished crossings /1 min Mean ± SEM (Albino Swiss mice [4]; 10 mg/kg i.p. 30 min before test): 4.7 ± 0.8 F(3,36) = 3.1652; p < 0.05 crossings/1 min; Immobility time (s) Mean ± SEM (Albino Swiss mice [3]; [12]): 144.22 ± 14.5 s; Immobility time (s) Mean ± SEM (Albino Swiss mice [3]; [13]): 113.44 ± 14.9 s; Immobility time (s) Mean ± SEM (Albino Swiss mice [3]; [11]): 150.8 ± 11.4 F(3,32) = 5.5680; NS s
